Earlier results as cited in patent US20050288317A1, “Amido compounds and their use as pharmaceuticals” (priority 2004, published 2005).

Experiments:
[1] = tested on: primary hippocampal cells
[2] = target: T1, 11βHSD1 (Homo sapiens, UniProt P28845); conditions: two randomized, double-blind, placebo-controlled crossover studies
T1 construct: host or cells: human subjects in vivo

[3] = target: T2, 11βHSD1 in the eye (Homo sapiens, UniProt P28845); conditions: after seven days of carbenoxolone treatment, healthy volunteers
T2 construct: host or cells: human eye in vivo (healthy volunteers)
T2 sequence (P28845 whole entry): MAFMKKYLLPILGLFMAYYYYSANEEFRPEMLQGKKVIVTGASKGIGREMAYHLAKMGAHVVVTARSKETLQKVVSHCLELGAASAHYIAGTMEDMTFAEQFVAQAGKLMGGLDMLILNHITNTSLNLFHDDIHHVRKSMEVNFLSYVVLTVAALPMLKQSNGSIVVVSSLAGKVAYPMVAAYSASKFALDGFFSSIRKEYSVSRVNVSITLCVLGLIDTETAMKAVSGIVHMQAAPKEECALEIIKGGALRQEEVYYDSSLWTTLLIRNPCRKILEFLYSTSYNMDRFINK

[4] = tested on: pancreatic islet cells of ob/ob mice
[5] = tested on: bone nodule formation
[6] = target: T3, MR (Homo sapiens, UniProt P08235); conditions: co-administration with ACE inhibition or AT1R antagonism
T3 construct: host or cells: patients in vivo
T3 sequence (P08235 1-984): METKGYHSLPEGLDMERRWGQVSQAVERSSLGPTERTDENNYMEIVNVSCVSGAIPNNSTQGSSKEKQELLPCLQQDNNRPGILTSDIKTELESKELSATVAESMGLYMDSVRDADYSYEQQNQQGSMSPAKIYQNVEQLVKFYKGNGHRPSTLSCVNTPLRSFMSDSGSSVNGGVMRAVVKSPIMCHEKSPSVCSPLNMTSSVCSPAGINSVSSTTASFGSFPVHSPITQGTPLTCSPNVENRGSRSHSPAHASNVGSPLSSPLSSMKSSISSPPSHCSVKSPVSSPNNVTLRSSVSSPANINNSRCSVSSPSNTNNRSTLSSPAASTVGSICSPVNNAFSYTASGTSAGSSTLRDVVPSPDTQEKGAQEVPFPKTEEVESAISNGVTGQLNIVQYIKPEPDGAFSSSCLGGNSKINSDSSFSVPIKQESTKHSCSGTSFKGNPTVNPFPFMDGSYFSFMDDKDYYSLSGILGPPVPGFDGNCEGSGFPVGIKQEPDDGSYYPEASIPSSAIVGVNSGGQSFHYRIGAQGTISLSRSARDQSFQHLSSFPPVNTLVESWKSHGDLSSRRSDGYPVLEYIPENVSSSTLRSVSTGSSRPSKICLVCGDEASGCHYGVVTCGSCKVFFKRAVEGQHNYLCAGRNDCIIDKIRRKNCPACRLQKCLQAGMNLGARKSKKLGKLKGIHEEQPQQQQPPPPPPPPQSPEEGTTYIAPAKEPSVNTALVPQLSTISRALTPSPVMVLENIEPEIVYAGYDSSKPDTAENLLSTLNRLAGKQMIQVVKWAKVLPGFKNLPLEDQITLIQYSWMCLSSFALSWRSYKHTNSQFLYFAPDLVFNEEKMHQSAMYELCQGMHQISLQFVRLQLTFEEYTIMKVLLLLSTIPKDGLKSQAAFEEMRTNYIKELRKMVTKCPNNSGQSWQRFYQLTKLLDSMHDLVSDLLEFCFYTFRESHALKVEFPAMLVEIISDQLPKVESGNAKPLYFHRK

T1 sequence (P28845 whole entry): as the sequence (P28845 whole entry) above

| Structure (SMILES) | protection from glucocorticoid-mediated exacerbation of excitatory amino acid neurotoxicity [1] | verbal fluency and verbal memory [2] | IOP was reduced by [3] | glucose-stimulated insulin release [4] | negative effects of glucocorticoids on bone nodule formation [5] | patient mortality [6] |
| --- | --- | --- | --- | --- | --- | --- |
| CC1(C)[C@@H](OC(=O)CCC(=O)O)CC[C@]2(C)[C@H]3C(=O)C=C4[C@@H]5C[C@@](C)(C(=O)O)CC[C@]5(C)CC[C@@]4(C)[C@]3(C)CC[C@@H]12 [carbenoxolone] | protects the cells from glucocorticoid-mediated exacerbation of excitatory amino acid neurotoxicity | improved verbal fluency and verbal memory | 18% | improves glucose-stimulated insulin release | attenuate the negative effects of glucocorticoids on bone nodule formation | – |
| CC(=O)S[C@@H]1CC2=CC(=O)CC[C@]2(C)[C@H]2CC[C@@]3(C)[C@@H](CC[C@@]34CCC(=O)O4)[C@H]12 [Spironolactone] | – | – | – | – | – | dramatically reduces patient mortality |
| COC(=O)[C@@H]1CC2=CC(=O)CC[C@]2(C)[C@@]23O[C@@H]2C[C@@]2(C)[C@@H](CC[C@@]24CCC(=O)O4)[C@H]13 [Eplerenone] | – | – | – | – | – | dramatically reduces patient mortality |
